# According to patent US20230107642A1 (Erasca, Inc., priority 2020, published 2023):
# Target: T1, Cys12 of the KRAS 4B G12C protein (Homo sapiens, UniProt P01116, G12C)
# T1 construct: This protein contained 188 amino acids in total, including an N-terminal 6-Histidine tag; made in house; host or cells: E. coli BL21
# Assay: In vitro covalent adduct formation (CAF) assay, LC-MS intact mass
# Type: binding
# Settings: for % CAF 10 uM @ 60 min: 10 uM compound; for CAF (% after 1 hour): 10 μM compound
# Method in brief: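 GDP-loaded (>95%) His-TEV-tagged KRAS 4B G12C (residues 1–169), 5 μM in TBS pH 7.4, incubated with 10 μM compound (4% DMSO) at 22° C for one hour. Intact-protein LC-MS gave free:adduct ratios, reported as percent protein modified; duplicate runs.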
Compound,% CAF 10 uM @ 60 min (60 min) [%],other results
"C=CC(=O)N1[C@H](C)CN(c2nc(=O)n3c4c(c(-c5cc(Cl)c(F)cc5F)c(C(F)(F)F)cc24)SCC2(CC(=O)C2)C3)C[C@@H]1C [Example 1243, 8′-((3S,5R)-4-acryloyl-3,5-dimethylpiperazin-1-yl)-11′-(5-chloro-2,4-difluorophenyl)-10′-(trifluoromethyl)-2′H,4′H,6′H-spiro[cyclobutane-1,3′-[1,4]thiazepino[2,3,4-ij]quinazoline]-3,6′-dione]",–,CAF (% after 1 hour): 92%
"C=CC(=O)N1CCN(c2nc(=O)n3c4c(c(-c5ccc(F)c(Cl)c5)c(C(F)(F)F)cc24)SC[C@H](OCOC)C3)CC1 [Example 1006, (R)-8-(4-acryloylpiperazin-1-yl)-11-(3-chloro-4-fluorophenyl)-3-(methoxymethoxy)-10-(trifluoromethyl)-3,4-dihydro-2H,6H-[1,4]thiazepino[2,3,4-ij]quinazolin-6-one]",–,CAF (% binding after 60 min) (after 60 min): 90%
"C=CC(=O)N1[C@H](C)CN(c2nc(=O)n3c4c(c(-c5cccc6cnn(C)c56)c(C(F)(F)F)cc24)SCC2(COC2)C3)C[C@@H]1C (atropisomer, axis not shown) [Example 1132, (S)-8′-((3S,5R)-4-acryloyl-3,5-dimethylpiperazin-1-yl)-11′-(1-methyl-1H-indazol-7-yl)-10′-(trifluoromethyl)-2′H,4′H,6′H-spiro[oxetane-3,3′-[1,4]thiazepino [2,3,4-ij]quinazolin]-6′-one]",–,% CAF 10 uM @ 60 min (60 min incubation): 85.6%
"C=CC(=O)N1[C@H](C)CN(c2nc(=O)n3c4c(c(-c5nc(C(F)(F)F)cs5)c(C(F)(F)F)cc24)SC[C@@H](OC)C3)C[C@@H]1C [Example 1208, (S)-8-((3S,5R)-4-acryloyl-3,5-dimethylpiperazin-1-yl)-3-methoxy-10-(trifluoromethyl)-11-(4-(trifluoromethyl)thiazol-2-yl)-3,4-dihydro-2H,6H-[1,4]thiazepino[2,3,4-ij]quinazolin-6-one]",–,CAF (% after 1 hour): 95%
"C=CC(=O)N1C[C@H](C)N(c2nc(=O)n3c4c(c(-c5cccc6cnn(C)c56)c(Cl)cc24)SC[C@@H]3CN2CCN(C3CC3)CC2)C[C@H]1C [Example 1310, (3S)-7-((2S,5R)-4-acryloyl-2,5-dimethylpiperazin-1-yl)-9-chloro-3-((4-cyclopropylpiperazin-1-yl)methyl)-10-(1-methyl-1H-indazol-7-yl)-2,3-dihydro-5H-[1,4]thiazino[2,3,4-ij]quinazolin-5-one]",95,–
"C=CC(=O)N1[C@H](C)CN(c2nc(=O)n3c4c(c(-c5cc(Cl)c(F)cc5F)c(C(F)(F)F)cc24)SCC2(COC2)C3)C[C@@H]1C (atropisomer, axis not shown) [Example 1124, (R)-8′-((3S,5R)-4-acryloyl-3,5-dimethylpiperazin-1-yl)-11′-(5-chloro-2,4-difluorophenyl)-10′-(trifluoromethyl)-2′H,4′H,6′H-spiro[oxetane-3,3′-[1,4]thiazepino [2,3,4-ij]quinazolin]-6′-one]",–,% CAF 10 uM @ 60 min (60 min incubation): 96.2%
"C=CC(=O)N1[C@H](C)CN(c2nc(=O)n3c4c(c(-c5cc(Cl)c(F)cc5F)c(C(F)(F)F)cc24)SC[C@@H]3CN2C[C@@H]3C[C@H]2CO3)C[C@@H]1C (atropisomer, axis not shown) [Example 1332, (3S,10S)-3-(((1S,4S)-2-oxa-5-azabicyclo[2.2.1]heptan-5-yl)methyl)-7-((3S,5R)-4-acryloyl-3,5-dimethylpiperazin-1-yl)-10-(5-chloro-2,4-difluorophenyl)-9-(trifluoromethyl)-2,3-dihydro-5H-[1,4]thiazino[2,3,4-ij]quinazolin-5-one]",87,–
"C=CC(=O)N1CCN(c2nc(=O)n3c4c(c(-c5cc(Cl)c(F)cc5F)c(C(F)(F)F)cc24)SC[C@@H]3CN2C[C@@H]3C[C@H]2CO3)CC1 (atropisomer, axis not shown) [Example 1341, (3S,10R)-3-(((1S,4S)-2-oxa-5-azabicyclo[2.2.1]heptan-5-yl)methyl)-7-(4-acryloylpiperazin-1-yl)-10-(5-chloro-2,4-difluorophenyl)-9-(trifluoromethyl)-2,3-dihydro-5H-[1,4]thiazino[2,3,4-ij]quinazolin-5-one]",97.4,–

# Second part, led by results:
% CAF 10 uM @ 60 min (60 min) [%],Compound,other results
97.2,"C=CC(=O)N1CCN(c2nc(=O)n3c4c(c(-c5ccc(F)c6cnn(C)c56)c(C(F)(F)F)cc24)SC[C@@H]3COC)CC1 (atropisomer, axis not shown) [Example 1392a, (3S,10S)-7-(4-acryloylpiperazin-1-yl)-10-(4-fluoro-1-methyl-1H-indazol-7-yl)-3-(methoxymethyl)-9-(trifluoromethyl)-2,3-dihydro-5H-[1,4]thiazino[2,3,4-ij]quinazolin-5-one]",–
45,"C=CC(=O)N1C[C@H](C)N(c2nc(=O)n3c4c(c(-c5cc(Br)c(F)cc5F)c(C(F)(F)F)cc24)SCC2(COC2)C3)C[C@H]1C (atropisomer, axis not shown) [Example 1446, (S)-8′-((2S,5R)-4-Acryloyl-2,5-dimethylpiperazin-1-yl)-11′-(5-bromo-2,4-difluorophenyl)-10′-(trifluoromethyl)-2′H,4′H,6′H-spiro[oxetane-3,3′-[1,4]thiazepino[2,3,4-ij]quinazolin]-6′-one]",–
66,"C=CC(=O)N1C[C@H](C)N(c2nc(=O)n3c4c(c(-c5cc(Br)c(F)cc5F)c(C(F)(F)F)cc24)SCC2(CCOCC2)C3)C[C@H]1C [Example 1455, 8′-((2S,5R)-4-Acryloyl-2,5-dimethylpiperazin-1-yl)-11′-(5-bromo-2,4-difluorophenyl)-10′-(trifluoromethyl)-2,3,5,6-tetrahydro-2′H,4′H,6′H-spiro[pyran-4,3′-[1,4]thiazepino[2,3-4-ij]quinazolin]-6′-one]",–
86.9,"C=CC(=O)N1[C@H](C)CN(c2nc(=O)n3c4c(c(-c5cc(Cl)c(F)cc5F)c(C(F)(F)F)cc24)SC[C@@H]3CN2CCN(C3CC3)CC2)C[C@@H]1C (atropisomer, axis not shown) [Example 1349, (3S,10S)-7-((3S,5R)-4-acryloyl-3,5-dimethylpiperazin-1-yl)-10-(5-chloro-2,4-difluorophenyl)-3-((4-cyclopropylpiperazin-1-yl)methyl)-9-(trifluoromethyl)-2,3-dihydro-5H-[1,4]thiazino[2,3,4-ij]quinazolin-5-one]",–
92.4,"C=CC(=O)N1CCN(c2nc(=O)n3c4c(c(-c5ccc(F)cc5F)c(C(F)(F)F)cc24)SC[C@@H]3COCOC)CC1 (atropisomer, axis not shown) [Example 1367, (3S,10R)-7-(4-acryloylpiperazin-1-yl)-10-(2,4-difluorophenyl)-3-((methoxymethoxy)methyl)-9-(trifluoromethyl)-2,3-dihydro-5H-[1,4]thiazino[2,3,4-ij]quinazolin-5-one]",–
94.1,"C=CC(=O)N1[C@H](C)CN(c2nc(=O)n3c4c(c(-c5cc(Cl)c(F)cc5F)c(C(F)(F)F)cc24)SC[C@@H](N2CCCC2)C3)C[C@@H]1C [Example 1422, (3S)-8-((3S,5R)-4-acryloyl-3,5-dimethylpiperazin-1-yl)-11-(5-chloro-2,4-difluorophenyl)-3-(pyrrolidin-1-yl)-10-(trifluoromethyl)-3,4-dihydro-2H,6H-[1,4]thiazepino[2,3,4-ij]quinazolin-6-one]",–
92.8,"C=CC(=O)N1CCN(c2nc(=O)n3c4c(c(-c5cc(Cl)c(F)cc5F)c(C(F)(F)F)cc24)SC[C@@H]3CN2CCN(C3CC3)CC2)CC1 (atropisomer, axis not shown) [Example 1356, (3S,10S)-7-(4-acryloylpiperazin-1-yl)-10-(5-chloro-2,4-difluorophenyl)-3-((4-cyclopropylpiperazin-1-yl)methyl)-9-(trifluoromethyl)-2,3-dihydro-5H-[1,4]thiazino[2,3,4-ij]quinazolin-5-one]",–
80.9,"[2H]C([2H])=C([2H])C(=O)N1[C@H](C)CN(c2nc(=O)n3c4c(c(-c5ccc(F)cc5F)c(C(F)(F)F)cc24)SC[C@@H]3COC)C[C@@H]1C (atropisomer, axis not shown) [Example 1404, (3S,10S)-7-((3S,5R)-4-(acryloyl-d3)-3,5-dimethylpiperazin-1-yl)-10-(2,4-difluorophenyl)-3-(methoxymethyl)-9-(trifluoromethyl)-2,3-dihydro-5H-[1,4]thiazino[2,3,4-ij]quinazolin-5-one]",–
81.3,"C=CC(=O)N1CCN(c2nc(=O)n3c4c(c(-c5ccc(F)cc5)c(C(F)(F)F)cc24)SC[C@@H]3CN2C[C@@H]3C[C@H]2CO3)CC1 [Example 1350, (S)-3-(((1S,4S)-2-oxa-5-azabicyclo[2.2.1]heptan-5-yl)methyl)-7-(4-acryloylpiperazin-1-yl)-10-(4-fluorophenyl)-9-(trifluoromethyl)-2,3-dihydro-5H-[1,4]thiazino[2,3,4-ij]quinazolin-5-one]",–
96.9,"C=CC(=O)N1[C@H](C)CN(c2nc(=O)n3c4c(c(-c5ccc(F)cc5F)c(C(F)(F)F)cc24)SC[C@@H]3CN2CCN(C3CC3)CC2)C[C@@H]1C (atropisomer, axis not shown) [Example 1346, (3S,10R)-7-((3S,5R)-4-acryloyl-3,5-dimethylpiperazin-1-yl)-3-((4-cyclopropylpiperazin-1-yl)methyl)-10-(2,4-difluorophenyl)-9-(trifluoromethyl)-2,3-dihydro-5H-[1,4]thiazino[2,3,4-ij]quinazolin-5-one]",–
96,"C=CC(=O)N1[C@H](C)CN(c2nc(=O)n3c4c(c(-c5ccc(F)cc5)c(C(F)(F)F)cc24)SC[C@@H](N2CCCC2=O)C3)C[C@@H]1C [Example 1450, (S)-8-((3S,5R)-4-acryloyl-3,5-dimethylpiperazin-1-yl)-11-(4-fluorophenyl)-3-(2-oxopyrrolidin-1-yl)-10-(trifluoromethyl)-3,4-dihydro-2H,6H-[1,4]thiazepino[2,3,4-ij]quinazolin-6-one]",–
